Source: patent US20230284616A1, “FUNGICIDAL COMPOSITIONS” (SYNGENTA CROP PROTECTION AG, priority 2020, published 2023)
Read-outs that look alike come from different tables or passages of the source. Numbered stars: 1 amine (or outer) side, 2 acyl side, 3 side chain; on linkers, the order of the positions; unused ones are H or OH. Square brackets hold non-standard residues; d marks the D form. Peptide text beside a SMILES is read from it. ξ: configuration not given here. ξNMeVal(3-OH) = CNC(C(=O)O)C(C)(C)O; NMeF = CN[CH](Cc1ccccc1)C(=O)O; X1 = CCC(C)C(O[*:1])C(=O)[*:2]; NMeV = CN[CH](C(=O)O)C(C)C

Key:
[1] = test system: Alternaria solani; test: Liquid culture test in well plates, Alternaria solani (early blight of tomato/potato), Example 1-2; type: cell-based
Procedure: (§1) Mycelia fragments or conidia suspensions of a fungus, prepared either freshly from liquid cultures of the fungus or from cryogenic storage, are directly mixed into nutrient broth. DMSO solutions of the test compound (max. 10 mg/mL) is diluted with 0.025% Tween20 by factor 50 and 10 µL of this solution is pipetted into a microtiter plate (96-well format). […] The test plates are incubated in the dark at 24° C. and 96% relative humidity (rh). The inhibition of fungal growth is determined photometrically and visually after 3 - 7 days, depending on the pathosystem, and percent antifungal activity relative to the untreated check is calculated.
Conidia of the fungus from cryogenic storage were directly mixed into nutrient broth (PDB potato dextrose broth). After placing a DMSO solution of the test compositions into a microtiter plate (96-well format) the nutrient broth containing the fungal spores was added.

[2] = test system: Botrytis cinerea; test: Liquid culture test in well plates, Botrytis cinerea (gray mould), Example 1-1; type: cell-based; details: Cyprodinil 0.005 ppm alone, growth inhibition, photometric, 72 hours, read-out: (B) inhibition (%)
Procedure: as §1
Conidia of the fungus from cryogenic storage were directly mixed into nutrient broth (PDB potato dextrose broth). After placing a DMSO solution of the test compositions into a microtiter plate (96-well format), the nutrient broth containing the fungal spores was added.

[3] = 48 h, read-out: (A) inhibition (%)

Compound | inhibition at 0.01 ppm [1, 3] [%] | inhibition at 0.02 ppm [1, 3] [%] | inhibition at 0.04 ppm [1, 3] [%] | inhibition at 0.005 ppm [2] [%] | inhibition at 0.04 ppm ([1]; Cyprodinil 0.04 ppm alone, 48 hours, read-out: (B) inhibition (%)) [%]
CCC(C)C1NC(=O)C2CCCN2C(=O)C(Cc2ccccc2)N(C)C(=O)C(Cc2ccccc2)NC(=O)C(C(C)C)N(C)C(=O)C(C(C)CC)OC(=O)C(C(C)(C)O)N(C)C(=O)C(CC(C)C)NC(=O)C(C(C)C)N(C)C1=O (centres unmarked) [Aureobasidin A] (cyclo([ξNMeVal(3-OH)][X1][NMeV]F[NMeF]PI[NMeV]L); configuration not given here) | 24 | 31 | 43 | – | –
Cc1cc(C2CC2)nc(Nc2ccccc2)n1 [Cyprodinil, cyprodinil, reference compound] | – | – | – | 34 | 35
